Patent US8026235B1, “Pyridyl benzoxazine derivatives, pharmaceutical composition comprising the same, and use thereof” (Daewoong Pharmaceutical Co., Ltd., priority 2010, dated 2011)
Read-outs that look alike come from different tables or passages of the source.

Legend:
[1] = molecular target: T1, human vanilloid-1 (TRPV1) (Homo sapiens, UniProt Q8NER1); test: Inhibitory effect on capsaicin-stimulated calcium influx via a vanilloid receptor in hVR-1-HEK293 cells (Fluo-3/AM); format: cell-based; settings: 1 μM capsaicin
T1 construct: expressed in transfected cells; host or cells: HEK293 Tet-on (hVR-1-HEK293), expression induced with doxycycline
From the text: In order to confirm the antagonistic activities of the inventive compounds, inhibitory effects of the compounds on calcium influx were examined as follows.
hVR-1-HEK293 cell line is a human embryonic kidney (HEK) cell 293 Tet-on strain transformed with a human vanilloid-1 gene (pTRE2hyg-hVR-1 7.8 kb). The cell line can modulate the expression of TRPV1, depending on whether doxycycline, a derivative of tetracycline, is present or not.
In order to elucidate the inhibitory effect on calcium influx, the expression of TRPV1 was induced by culturing hVR-1-HEK293 cell line in a medium containing doxycycline for 2 days.
Specifically, hVR-1-HEK293 cells were cultured in a T75 flask to about 80% confluency, separated from the flask by treating with trypsin solution, and then collected by centrifugation. The cells were suspended in a medium containing 1 μg/mL of doxycycline, and the resulting suspension was diluted to a concentration of 2˜4×10^5 cells/mL 100 μL of the cell suspension was placed in each well of a 96-well black plate. The cells were cultured in 5% CO2 incubator at 37° C. for 2 days, and used for the following procedure.
The compounds, prepared in the Examples 1 to 9 of the present invention, were dissolved in dimethyl sulfoxide (DMSO) to obtain compound samples.
The cells prepared in 1) above were cultured at 37° C. for 90 min in a solution containing Fluo-3/AM, a fluorescent dye, as a calcium indicator so that the fluorescent dye was permeated into the cells. Then the cells were washed three times with D-PBS (Dulbecco's phosphate buffered saline) containing 10 mM HEPES (4-(2-hydroxyethyl)-1-piperazine ethanesulfonic acid) to remove the residual fluorescent dye. 193 μL of D-PBS was added to each well, followed by addition of various concentrations (0.015˜2000 nM) of the compounds. In order to stimulate calcium influx through a vanilloid receptor, the cells were treated with 1 μM of capsaicin. The inhibitory effect of various concentrations (0.015˜2000 nM) of compounds on intracellular calcium influx was measured by using a fluorimeter. Equivalent amounts of (R)-1-(2-bromophenyl)-3-(1-(5-(trifluoromethyl)pyridin-2-yl)pyrrolidin-3-yl)urea (also, referred to SB-705498) was used as a control group. The obtained data were input to the Hill equation represented by the following formula I and the values were analyzed: Intracellular calcium influx=(florescent intensity of experimental group−florescent intensity of background)/(florescent intensity of positive control−florescent intensity of background)×100 [Formula 1]
The inhibitory activities were evaluated from the obtained intracellular calcium influx values according to the following criteria.

[2] = tested on: SD rats (Sprague-Dawley rats); test: Assay for body temperature change (rectal temperature) in SD rats; format: in vivo; settings: single oral administration, rectal temperature up to 8 hr
Experimental: With the knowledge that some TRPV1 antagonists show the side effect of increasing the body temperature (Gavva et al., 2008, Pain, 136, 202-210), changes in body temperature associated with the compounds prepared in the Examples of the present invention were assessed.
7-week-old SD rats (Sprague-Dawley rats) were employed for this evaluation. Each of the compounds of the Examples was orally administered once at a dose of 10 ml/kg by compulsion. Before administration, the compounds were suspended, together with the excipient Na-CMC (sodium carboxymethyl cellulose), in saline 10 mL. Rectal temperatures of the rats were measured 1 hr and immediately (0 hr) prior to administration, and at the 30 min, 1 hr, 2 hr, 4 hr, 6 hr and 8 hr marks after administration using a thermometer (Shibaura Electronic Corporation, TD-300). The data were expressed as mean values ±S.E.M. Statistical data was analyzed by one way ANOVA, and statistical significance was analyzed in comparison with the excipient-treated control using Dunnett's t-test. Meanwhile, N-(4-(6-(4-(trifluoromethyl)phenyl)[…])benzo[d]thiazol-2-yl)acetamide (hereinafter referred to as “AMG-517”) was used at a dose of 3 mg/kg, as a positive control.

[3] = tested on: PBQ-induced writhing in ICR male mice; test: Phenyl-p-quinone (PBQ)-induced writhing experiment using mice (effect on pain); format: in vivo; settings: oral, PBQ (0.02%) i.p. after 1 hour; for I.A. (inhibitory activity), % inhibition rate class: writhing counted for 10 min
Experimental: In order to evaluate the effect on pain of the compounds prepared in the Examples 1 to 9, behaviors such as twisting or writhing of body resulted from pain were verified by the phenyl-p-quinone (PBQ)-induced writhing experiment using mice.
5 week-old ICR male mice were used as experimental animals and PBQ (0.02%), as a chemical stimulator. The suspensions of 20 mg of the compounds of the present invention and an excipient such as Na-CMC (sodium carboxymethyl cellulose) in 10 mL of saline were used as test compounds. The test compounds were orally administered to the mice and after 1 hour, PBQ was intraperitoneally administrated in an amount of 10 mL per kg of body weight. The writhing number of each mouse was measured for 10 min starting from 5 min after the administration, and the analgesic effect was verified by counting the reduced number compared to the control group administered with only excipient and calculating the % inhibitory rate according to the following Formula 2. Also, equivalent amounts of SB-705498 were administered as a reference compound for the comparison of the effect on pain between SB-705498 and the compounds of the present invention. % inhibition rate=(writhing # of control group−writhing # of test group)/writhing # of control group×100 [Formula 2]
The inhibitory activity was evaluated from the obtained % inhibition rate, according to the following parameters.

[4] = compounds 0.015˜2000 nM, read-out: I.A. (inhibitory activity), IC50 class

T1 sequence (Q8NER1 whole entry): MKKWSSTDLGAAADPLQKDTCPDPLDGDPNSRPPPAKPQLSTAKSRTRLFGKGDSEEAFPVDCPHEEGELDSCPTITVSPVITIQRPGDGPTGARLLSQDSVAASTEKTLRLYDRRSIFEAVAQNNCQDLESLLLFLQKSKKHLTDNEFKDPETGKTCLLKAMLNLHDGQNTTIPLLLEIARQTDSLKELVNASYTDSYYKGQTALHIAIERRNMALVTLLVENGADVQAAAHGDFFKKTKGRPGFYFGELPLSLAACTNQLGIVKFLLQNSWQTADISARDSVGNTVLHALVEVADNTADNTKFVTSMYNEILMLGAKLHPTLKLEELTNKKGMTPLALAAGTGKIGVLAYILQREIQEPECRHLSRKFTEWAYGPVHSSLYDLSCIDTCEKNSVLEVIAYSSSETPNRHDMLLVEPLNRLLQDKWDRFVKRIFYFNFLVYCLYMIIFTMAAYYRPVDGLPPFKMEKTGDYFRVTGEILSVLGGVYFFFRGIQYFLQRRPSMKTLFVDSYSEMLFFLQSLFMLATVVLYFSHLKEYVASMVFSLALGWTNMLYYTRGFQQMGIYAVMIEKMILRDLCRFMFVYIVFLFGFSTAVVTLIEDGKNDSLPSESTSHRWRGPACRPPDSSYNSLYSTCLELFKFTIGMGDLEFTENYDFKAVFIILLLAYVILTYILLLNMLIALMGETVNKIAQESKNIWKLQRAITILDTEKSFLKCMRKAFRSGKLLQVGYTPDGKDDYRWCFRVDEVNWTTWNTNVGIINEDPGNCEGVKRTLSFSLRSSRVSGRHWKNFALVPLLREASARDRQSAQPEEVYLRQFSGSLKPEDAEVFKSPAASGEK

| IC50 [1, 4] [nM] | Change in Body Temp. [2] | IC50 ([1]; read-out: IC50 on calcium influx) [nM] | Structure (SMILES) | I.A. (inhibitory activity), % inhibition rate class [3] | % inhibition rate of writhing [3] [%] |
| --- | --- | --- | --- | --- | --- |
| 20 to 100 | +/− (±<0.5° C.) |  | COc1ccc(N2c3cccc(-c4nc5c(Cl)cc(C(F)(F)F)cc5[nH]4)c3OC[C@@H]2CO)nc1 [Example 8, (S)-(8-(4-chloro-6-(trifluoromethyl)-1H-benzo[d]imidazol-2-yl)-4-(5-methoxypyridin-2-yl)-3,4-dihydro-2H-benzo[b][1,4]oxazin-3-yl)methanol] | +++ (51-80%) |  |
| 20 to 100 | +/− (±<0.5° C.) |  | COc1ccc(N2c3cccc(-c4nc5cc(Cl)c(Cl)cc5[nH]4)c3OC[C@@H]2CO)nc1 [Example 3, (S)-(8-(5,6-dichloro-1H-benzo[d]imidazol-2-yl)-4-(5-methoxypyridin-2-yl)-3,4-dihydro-2H-benzo[B][1,4]oxazin-3-yl)methanol] | ++ (20˜50%) |  |
| < 20 | + (0.5^~1.0° C.) |  | COc1ccc(N2c3cccc(-c4nc5c(Br)cc(OC(F)(F)F)cc5[nH]4)c3OC[C@@H]2CO)nc1 [Example 5, (S)-(8-(4-bromo-6-(trifluoromethoxy)-1H-benzo[d]imidazol-2-yl)-4-(5-methoxypyridin-2-yl)-3,4-dihydro-2H-benzo[B][1,4]oxazin-3-yl)methanol] | +++ (51-80%) |  |
| 20 to 100 | +/− (±<0.5° C.) |  | COc1ccc(N2c3cccc(-c4nc5ccc(OC(F)(F)F)cc5[nH]4)c3OC[C@@H]2CO)nc1 [Example 4, (S)-(4-(5-methoxypyridin-2-yl)-8-(6-(trifluoromethoxy)-1H-benzo[d]imidazol-2-yl)-3,4-dihydro-2H-benzo[b][1,4]oxazin-3-yl)methanol] | ++ (20˜50%) |  |
| 101 to 500 | +/− (±<0.5° C.) |  | COc1ccc(N2CCOc3c(-c4nc5ccc(C(C)(C)C)cc5[nH]4)cccc32)nc1 [Example 1, 8-(6-tert-Butyl-1H-benzo[d]imidazol-2-yl)-4-(5-methoxypyridin-2-yl)-3,4-dihydro-2H-benzo[b][1,4]oxazine] | ++ (20˜50%) |  |
| 20 to 100 | +/− (±<0.5° C.) |  | COc1ccc(N2c3cccc(-c4nc5cc(F)c(Cl)cc5[nH]4)c3OC[C@@H]2CO)nc1 [Example 6, (S)-(8-(6-chloro-5-fluoro-1H-benzo[d]imidazol-2-yl)-4-(5-methoxypyridin-2-yl)-3,4-dihydro-2H-benzo[b][1,4]oxazin-3-yl)methanol] | +++ (51-80%) |  |
|  |  | 100 to 150 | O=C(Nc1ccccc1Br)N[C@@H]1CCN(c2ccc(C(F)(F)F)cn2)C1 [SB-705498, (R)-1-(2-bromophenyl)-3-(1-(5-(trifluoromethyl)pyridin-2-yl)pyrrolidin-3-yl)urea, reference compound] |  | < 20 |
| 101 to 500 | + (0.5^~1.0° C.) |  | COc1ccc(N2c3cccc(-c4nc5c(Br)cc(Br)cc5[nH]4)c3OC[C@@H]2CO)nc1 [Example 9, (S)-(8-(4,6-dibromo-1H-benzo[d]imidazol-2-yl)-4-(5-methoxypyridin-2-yl)-3,4-dihydro-2H-benzo[b][1,4]oxazin-3-yl)methanol] | ++ (20˜50%) |  |
| 101 to 500 | + (0.5^~1.0° C.) |  | COc1ccc(N2c3cccc(-c4nc5c(Br)cc(C(F)(F)F)cc5[nH]4)c3OC[C@@H]2CO)nc1 [Example 7, (S)-(8-(4-bromo-6-(trifluoromethyl)-1H-benzo[d]imidazol-2-yl)-4-(5-methoxypyridin-2-yl)-3,4-dihydro-2H-benzo[b][1,4]oxazin-3-yl)methanol] | ++ (20˜50%) |  |
| 20 to 100 | + (0.5^~1.0° C.) |  | COc1ccc(N2c3cccc(-c4nc5ccc(C(F)(F)F)cc5[nH]4)c3OC[C@@H]2CO)nc1 [Example 2, (S)-(4-(5-methoxypyridin-2-yl)-8-(6-(trifluoromethyl)-1H-benzo[d]imidazol-2-yl)-3,4-dihydro-2H-benzo[b][1,4]oxazin-3-yl)methanol] | ++ (20˜50%) |  |
